# Test results reported in US10750762B2, “Bio-based N-acetyl-L-methionine and use thereof” (CJ Cheiljedang Corporation, priority 2015, dated 2020).
# Where two headings read alike, the source gives them in different places.
# Assays:
# [1] = tested on: ruminal microflora; details: male, Holstein, cattle, 2 mg/mL
# Protocol: One Holstein steer (weighing around 630 kg to 650 kg) equipped with ruminal cannula was provided for an experimental purpose, and the Holstein steer was bred by feeding the commercial feed (Milkgen™, CJ CheilJedang) and rice straws twice a day (7:30 a.m., 3:[…].).
# The collection of ruminal fluid was carried out at 10 a.m. on the experimental day. Contents in the rumen were removed through a cannula, and gastric fluid was extracted with gauze by squeezing the same. Thereafter, the extracted gastric fluid was placed in a vacuum flask, and bubbled with CO2. The vacuum flak containing the gastric fluid was then carried to a laboratory while blocking a penetration of oxygen. It took less than an hour to carry the ruminal fluid to the laboratory.
# The ruminal fluid carried to the laboratory was filtered with two layers of gauze, and then it was used as anaerobic culture medium by mixing the same with a biomimetic solution of McDougall's buffer (Troelsen and Donna, 1966), which is commonly used in the in vitro rumen bypass test, in a ratio of 1:3.
# A feed used in the experiment was the commercial feed (Milkgen™), a feed substantially used for cattle breeding, and the feed was also used as a basal diet. Further, the experimental samples were prepared by mixing the basal diet with a test material. The test material used in this experiment was N-acetyl-L-methionine, and this was used as an experimental group 1. The experimental group 1 was compared with the control group 1 composed of only the basal diet without the test material, and also compared with the control group 2 composed of the test material, L-methionine. The culture was carried out with three replications for each experimental group.
# The basal diet and test material were mixed in a ratio of 4:1 (basic diet (0.4 g), test material (0.1 g); but only 0.5 g of basic diet in control group 1). The culture initiated when the mixed test material (0.5 g) was added in a culture bottle (125 mL), and then mixed it with the prepared anaerobic culture medium (50 mL), and placed in 40° C. incubator upon sealing of the same.
# O2 free CO2 was sprayed during the entire process including dilution of the ruminal fluid until the initiation of the culture, so that the ruminal fluid was not exposed to oxygen. Therefore, the anaerobic condition was maintained.
# The culture was finally carried out for 48 hours, and sampling of the culture medium was carried out a total of four times (0 h, 24 h, 36 h, 48 h) upon the initiation of the culture. At each sampling, the sample placed in the 40° C. incubator was moved from the incubator and opened its lid. Thereafter, a supernatant was obtained by centrifuging the culture medium at 4000 rpm for 10 minutes, and then the amount of the test material present in the supernatant was measured.
# The bypass rate (%) is represented as a residual amount (%) at time-points of 24 hours, 36 hours, and 48 hours, based on the amount of a test material at the time-point of 0 hour (100%).
# [2] = Milk production and composition on feeding N-acetyl-L-methionine; assay type: in vivo, dairy cows
# Protocol: Based on the in vitro evaluation, the N-acetyl-L-methionine, for which high digestive degradation rate in the small intestine and bypass rate in the rumen had been observed, was subjected to verify its efficiency through a substantial evaluation with dairy cows. In order for this, the cows were divided into two separated groups, and the change in milk composition depending on presence or absence of the N-acetyl-L-methionine was analyzed during the evaluation. For this, eight dairy cows were divided into two groups so that each group consists of four cows, respectively. Additionally, the N-acetyl-L-methionine was added to the feed composition (Table 12) which are fed by the four cows in one group (30 g of N-acetyl-L-methionine by each cow per a day), and it was carried out for 84 days. • Group 1: Non-addition of N-acetyl-L-methionine • Group 2: Addition of N-acetyl-L-methionine
# [3] = tested on: extracts of bovine small intestine; assay type: in vitro ADME; details: Korean native cattle, 24 h
# Protocol: The small intestine (40 m) of Korean native cattle (record number: KOR005078680400), slaughtered in Bucheon livestock products market of National Agricultural Cooperative Federation, was purchased. After slicing the small intestine to around 1 m, 20 mM sodium phosphate buffer (pH 7.4, 5 mL) was added in the sliced small intestine. Thereafter, while holding each ends of the small intestine, the small intestine was repeatedly waggled to help most of enzymes in the small intestine to be dissolved by the sodium phosphate buffer. […]
# (§1) In order to remove protein in the sample which the reaction was over, perchloric acid (0.5%) was added therein and diluted 10-fold. Thereafter, the N-acetyl-L-methionine and L-methionine existing in the supernatant, which is separated by centrifugation at 14,000 for 10 minutes, were quantitatively analyzed (HPLC). Conversion rate (%) was calculated by comparing the molar concentrations (mM) between the N-acetyl-L-methionine prior to the reaction and the L-methionine after the reaction, in terms of the percentage (%) (the molecular weight of the N-acetyl-L-methionine: […]; and the molecular weight of the L-methionine: […]). […]
# [4] = Weight gain effect on feeding N-acetyl-L-methionine; assay type: in vivo, beef steers
# Description: The weight gain effect of beef steers was verified through feeding N-acetyl-L-methionine. For the verification, 24 beef steers were divided into two groups so that each group consisted of 12 beef steers. […] In the group with the addition of N-acetyl-L-methionine, each beef steer was fed with the N-acetyl-L-methionine (30 g) per a day.
# [5] = tested on: extracts of bovine liver; test: Digestive degradation by extracts of liver; assay type: in vitro ADME; details: Korean native cattle, 24 h
# Protocol: The liver of Korean native cattle (record number: KOR005078680400), slaughtered in Bucheon livestock products market of National Agricultural Cooperative Federation, was purchased. After mixing liver tissues (0.125 g) with 20 mM sodium phosphate buffer (pH 7.4, 1 mL), glass beads (Sigma G1145) were filled in about 1/10 of a tube (2 mL). The cell tissues were disrupted using a beadbeater (MP™ FastPrep) for three times with each 20 seconds, and the resultant was centrifuged at 4° C. at 14,000 rpm for 10 minutes to obtain supernatants.
# To confirmed the enzymatic activity of the extracts obtained from small intestine and liver, acylase I (sigma A3010) extracted from pig kidney was used. […]
# as §1
# [6] = 30 g per cow per day in feed, 84 days
# [7] = 30 g per steer per day, 90 days
smiles,measurement,setting,value
CSCC[C@H](N)C(=O)O [L-methionine],"Rate of rumen bypass (%), Average",[1]; 0 h,100%
same,"Rate of rumen bypass (%), replicate 1",[1]; 0 h,100%
same,"Rate of rumen bypass (%), replicate 2",[1]; 0 h,100%
same,"Rate of rumen bypass (%), replicate 3",[1]; 0 h,100%
same,"Rate of rumen bypass (%), Average",[1]; 24 h,58.8%
same,"Rate of rumen bypass (%), replicate 1",[1]; 24 h,51.2%
same,"Rate of rumen bypass (%), replicate 2",[1]; 24 h,62.6%
same,"Rate of rumen bypass (%), replicate 3",[1]; 24 h,62.7%
same,"Rate of rumen bypass (%), Average",[1]; 36 h,36.0%
same,"Rate of rumen bypass (%), replicate 1",[1]; 36 h,29.4%
same,"Rate of rumen bypass (%), replicate 2",[1]; 36 h,42.3%
same,"Rate of rumen bypass (%), replicate 3",[1]; 36 h,36.2%
same,"Rate of rumen bypass (%), Average",[1]; 48 h,1.5%
same,"Rate of rumen bypass (%), replicate 1",[1]; 48 h,1.9%
same,"Rate of rumen bypass (%), replicate 2",[1]; 48 h,1.5%
same,"Rate of rumen bypass (%), replicate 3",[1]; 48 h,0.9%
CSCC[C@H](NC(C)=O)C(=O)O [N-acetyl-L-methionine],"Amount of production, 3.5% FCM (Fat-corrected milk)",[2]; [6],43.4 kg/day
same,"Amount of production, ECM (Energy-corrected milk)",[2]; [6],42.9 kg/day
same,"Feed efficiency, 3.5% FCM yield/DMI",[2]; [6],1.72
same,"Feed efficiency, ECM yield/DMI",[2]; [6],1.70
same,"Feed efficiency, Milk production/Feed intake (Milk yield/DMI)",[2]; [6],1.66
same,"Production of milk ingredients, Milk fat",[2]; [6],1.56 kg/day
same,"Production of milk ingredients, Milk protein",[2]; [6],1.18 kg/day
same,"Rate of milk ingredients, Milk fat",[2]; [6],3.70%
same,"Rate of milk ingredients, Milk protein",[2]; [6],2.83%
same,"3.5% FCM production, rate of increase (%)",[2]; vs non-addition group,7.4%
same,"ECM production, rate of increase (%)",[2]; vs non-addition group,6.7%
same,"Feed efficiency 3.5% FCM yield/DMI, rate of increase (%)",[2]; vs non-addition group,9.6%
same,"Feed efficiency ECM yield/DMI, rate of increase (%)",[2]; vs non-addition group,8.3%
same,"Feed efficiency Milk yield/DMI, rate of increase (%)",[2]; vs non-addition group,3.1%
same,"Production of milk ingredients, Milk fat, rate of increase (%)",[2]; vs non-addition group,12.2%
same,"Production of milk ingredients, Milk protein, rate of increase (%)",[2]; vs non-addition group,3.5%
same,"Rate of milk ingredients, Milk fat, rate of increase (%)",[2]; vs non-addition group,10.8%
same,"Rate of milk ingredients, Milk protein, rate of increase (%)",[2]; vs non-addition group,1.8%
same,"Rate of rumen bypass (%), Average",[1]; 0 h,100%
same,"Rate of rumen bypass (%), replicate 1",[1]; 0 h,100%
same,"Rate of rumen bypass (%), replicate 2",[1]; 0 h,100%
same,"Rate of rumen bypass (%), replicate 3",[1]; 0 h,100%
same,"Rate of rumen bypass (%), Average",[1]; 24 h,89.1%
same,"Rate of rumen bypass (%), replicate 1",[1]; 24 h,87.5%
same,"Rate of rumen bypass (%), replicate 2",[1]; 24 h,90.5%
same,"Rate of rumen bypass (%), replicate 3",[1]; 24 h,89.4%
same,"Rate of rumen bypass (%), Average",[1]; 36 h,76.2%
same,"Rate of rumen bypass (%), replicate 1",[1]; 36 h,72.5%
same,"Rate of rumen bypass (%), replicate 2",[1]; 36 h,80.1%
same,"Rate of rumen bypass (%), replicate 3",[1]; 36 h,76.0%
same,"Rate of rumen bypass (%), Average",[1]; 48 h,55.4%
same,"Rate of rumen bypass (%), replicate 1",[1]; 48 h,52.6%
same,"Rate of rumen bypass (%), replicate 2",[1]; 48 h,57.2%
same,"Rate of rumen bypass (%), replicate 3",[1]; 48 h,56.5%
same,L-methionine (mM) after the reaction,[3],10.9 mM
same,Average daily weight gain,[4]; [7],1.48 kg/day
same,"Weight of beef steer, 3 months after feeding",[4]; [7],382.1 kg
same,additional weight gain,"[4]; in comparison with one without the N-acetyl-L-methionine, 90 days",16.5 kg
same,"Weight gain, rate of increase (%)",[4]; vs non-addition group,14.2%
"CSCCC(NC(C)=O)C(=O)O (racemic) [N-acetyl-D,L-methionine, reference compound]",L-methionine (mM) after the reaction,[5],6.36 mM
same,L-methionine (mM) after the reaction,[3],5.82 mM
